Experiments:
[1] = target: T1, human TRPV1 receptor (hTRPV1) (Homo sapiens (Human), UniProt Q8NER1); assay: Capsaicin activation assay (FLIPR intracellular Ca2+); format: cell-based; conditions: Table 1; inhibition of capsaicin-induced intracellular Ca2+ increase, HEK293 cells expressing human TRPV1; read-out: hTRPV1 cap IC50
Experimental: Dulbecco's modified Eagle medium (D-MEM) (with 4.5 mg/mL glucose) and fetal bovine serum were obtained from Hyclone Laboratories, Inc. (Logan, Utah). Dulbecco's phosphate-buffered saline (D-PBS) (with 1 mg/mL glucose and 3.6 mg/l Na pyruvate, without phenol red), L-glutamine, hygromycin B, and Lipofectamine® were obtained from Life Technologies (Grand Island, N.Y.). G418 sulfate was obtained from Calbiochem-Novabiochem Corp. (San Diego, Calif.). Capsaicin (8-methyl-N-vanillyl-6-nonenamide) was obtained from Sigma-Aldrich, Co. (St. Louis, Mo.). Fluo-4 AM (N-[4-[6-[(acetyloxy)methoxy]-2,7-difluoro-3-oxo-3H-xanthen-9-yl]-2-[2-[2-[bis[2-[(acetyloxy)methoxy]-2-oxyethyl]amino]-5-methyl phenoxy]ethoxy]phenyl]-N-[2-[(acetyloxy)methoxy]-2-oxyethyl]-glycine, (acetyloxy)methyl ester) was purchased from Molecular Probes (Eugene, Oreg.). […]
The functional activity of compounds at the TRPV1 receptor was determined by measurement of intracellular Ca^2+ levels ([Ca^2+]i) using the Fluorescence Imaging Plate Reader (FLIPR)^TETRA®. All compounds were tested over a 12-point one-third-log concentration range. Compound stocks, 10 mM, were prepared in DMSO, and diluted serially across a 384-well plate using a Bravo BenchCel workstation (Agilent Technologies, Santa Clara, Calif.). A stock concentration of capsaicin (10 mM) was made in DMSO, and diluted in D-PBS to a final concentration of 200 nM (4×). On the day prior to the experiment, recombinant HEK293 cells that stably express human TRPV1 were removed from tissue culture flasks and plated in growth medium into black-walled clear-bottom 384-well Biocoat™ poly-D-lysine assay plates (BD Biosciences, Bedford, Mass.) using a Multidrop® dispenser (ThermoScientific, Waltham, Mass.). On the day of the experiment, growth medium was removed, and the no-wash FLIPR® Calcium-4 dye (λEX=470-495 nm, λEM=515-575 nm; Molecular Devices, Sunnyvale, Calif.) was added to each well using the Multidrop® dispenser. Cells were incubated for 90-120 minutes in the dark at room temperature. Test compounds were added to the cells 3 minutes prior to the addition of 200 nM capsaicin (4×), and the final assay volume was 80 μL. Fluorescence readings were made at 1 to 5 second intervals over the course of the experimental run. The peak increase in relative fluorescence units (minus baseline) was calculated, and expressed as a percentage of the 50 nM capsaicin (control) response.

[2] = target: T1, human TRPV1 receptor (hTRPV1); assay: Acid activation assay (pH 5.0, FLIPR intracellular Ca2+); format: cell-based; conditions: Table 1; 37.5 μM antagonist, percentage of the maximal pH 5.0-induced response remaining; read-out: hTRPV1 H+ (max % remain)
Experimental: Dulbecco's modified Eagle's medium (DMEM) with 4.5 mg/mL D-glucose, fetal bovine serum, L-glutamine, and 2-morpholinoethanesulfonic acid (MES) were purchased from Sigma-Aldrich Co. (St. Louis, Mo.). Dulbecco's phosphate-buffered saline (DPBS) with Ca^2+, Mg^2+, and 1 mg/mL D-glucose (pH 7.4), Geneticin®, 0.25% trypsin-1 mM EDTA, and penicillin-streptomycin were purchased from Invitrogen Corp. (Carlsbad, Calif.). The FLIPR® Calcium 4 assay kit was purchased from Molecular Devices (Sunnyvale, Calif.).
The cDNAs for the human TRPV1 receptor (hTRPV1) were isolated by reverse transcriptase-polymerase chain reaction (RT-PCR) from human small intestine poly A+RNA supplied by Clontech (Palo Alto, Calif.) using primers designed surrounding the initiation and termination codons identical to the published sequences (Hayes et al. Pain 2000, 88, 205-215). The resulting cDNA PCR products were subcloned into pCIneo mammalian expression vector (Promega) and fully sequenced using fluorescent dye-terminator reagents (Prism, Perkin-Elmer Applied Biosystems Division) and a Perkin-Elmer Applied Biosystems Model 373 DNA sequencer or Model 310 genetic analyzer. Expression plasmids encoding the hTRPV1 cDNA were transfected individually into 1321N1 human astrocytoma cells using Lipofectamine. Forty-eight hours after transfection, the neomycin-resistant cells were selected with growth medium containing 800 μg/mL Geneticin (Gibco BRL). Surviving individual colonies were isolated and screened for TRPV1 receptor activity. Cells expressing recombinant homomeric TRPV1 receptors were maintained at 37° C. in DMEM containing 4 mM L-glutamine, 300 μg/mL G418 (Cal-biochem) and 10% fetal bovine serum under a humidified 5% CO2 atmosphere.
The functional activity of compounds at the TRPV1 receptor was determined by measurement of intracellular Ca^2+ levels ([Ca^2+]i) using the Fluorescence Imaging Plate Reader (FLIPR)^TETRA®. All compounds were tested over a 12-point one-half-log concentration range. Compound stocks, 10 mM, were prepared in DMSO, and diluted serially across a 384-well plate using a Bravo BenchCel workstation (Agilent Technologies, Santa Clara, Calif.).
On the day of the experiment growth medium was removed, and the no-wash FLIPR® Calcium-4 dye (λEX=470-495 nm, λEM=515-575 nm) was added to each well using the Multidrop® dispenser. Cells were incubated for 90-120 minutes in the dark at 25° C. Test compounds were dissolved in DMSO, and plates were prepared using an Agilent Bravo workstation (Agilent Technologies Inc., Santa Clara, Calif.). Compounds were added to the cells 3 minutes prior to the addition of a pH 5.0 solution. Reagents were delivered at a rate of 40 μL/sec, and the final assay volume was 80 μL. Acidic pH solutions were prepared by titration of DPBS/MES with 1 N HCl. The intensity of the fluorescence was captured and digitally transferred to an interfaced PC.

T1 sequence (Q8NER1 whole entry): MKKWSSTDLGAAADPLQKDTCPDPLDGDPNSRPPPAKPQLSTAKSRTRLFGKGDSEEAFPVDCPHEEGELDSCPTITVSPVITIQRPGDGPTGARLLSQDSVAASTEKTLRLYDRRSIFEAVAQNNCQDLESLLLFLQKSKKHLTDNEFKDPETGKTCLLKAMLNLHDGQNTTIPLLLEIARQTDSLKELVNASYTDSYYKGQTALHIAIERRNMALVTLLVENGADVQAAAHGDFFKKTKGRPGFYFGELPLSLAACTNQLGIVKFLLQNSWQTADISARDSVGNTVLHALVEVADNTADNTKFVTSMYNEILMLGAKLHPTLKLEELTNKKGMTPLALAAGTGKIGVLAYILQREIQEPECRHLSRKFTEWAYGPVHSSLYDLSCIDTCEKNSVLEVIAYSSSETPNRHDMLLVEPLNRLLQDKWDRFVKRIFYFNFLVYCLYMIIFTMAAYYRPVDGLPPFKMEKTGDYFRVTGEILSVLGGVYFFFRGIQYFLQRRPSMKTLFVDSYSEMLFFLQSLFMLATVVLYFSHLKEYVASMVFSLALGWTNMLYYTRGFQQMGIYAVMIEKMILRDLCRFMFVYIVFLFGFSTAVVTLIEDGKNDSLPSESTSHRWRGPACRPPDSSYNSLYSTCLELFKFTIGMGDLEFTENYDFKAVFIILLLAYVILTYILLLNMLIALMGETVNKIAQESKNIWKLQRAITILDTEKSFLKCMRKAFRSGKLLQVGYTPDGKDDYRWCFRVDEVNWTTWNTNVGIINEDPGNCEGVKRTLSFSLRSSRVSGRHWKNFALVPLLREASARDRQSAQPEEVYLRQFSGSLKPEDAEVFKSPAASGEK

| SMILES | IC50 [1] | remaining activity at 37.5 µM [2] |
| --- | --- | --- |
| O=C1CCc2ccc(NC(=O)N[C@@H]3CC[C@@H](c4ccccc4)C3)cc2N1 [Example 19, 1-(2-oxo-1,2,3,4-tetrahydroquinolin-7-yl)-3-[(1R,3R)-3-phenylcyclopentyl]urea] | > 37500 nM | 81% |
| O=C(Nc1cccc2c1C[C@H](O)C2)N[C@H]1CC[C@@H](c2ccccc2)C1 [Example 22, 1-[(2R)-2-hydroxy-2,3-dihydro-1H-inden-4-yl]-3-[(1S,3R)-3-phenylcyclopentyl]urea] | 286 nM | 41% |
| O=C(Nc1cccc2c1C[C@@H](O)C2)N[C@H]1CC[C@@H](c2ccccc2)C1 [Example 23, 1-[(2S)-2-hydroxy-2,3-dihydro-1H-inden-4-yl]-3-[(1S,3R)-3-phenylcyclopentyl]urea] | 138 nM | 88% |
| C[C@H]1Oc2c(NC(=O)N[C@H]3CC[C@@H](c4ccccc4)C3)cccc2NC1=O [Example 24, 1-[(2R)-2-methyl-3-oxo-3,4-dihydro-2H-1,4-benzoxazin-8-yl]-3-[(1S,3R)-3-phenylcyclopentyl]urea] | 85 nM | 1% |
| Cn1ncc2c(NC(=O)N[C@H]3CC[C@@H](c4ccccc4)C3)cccc21 [Example 25, 1-(1-methyl-1H-indazol-4-yl)-3-[(1S,3R)-3-phenylcyclopentyl]urea] | 628 nM | 46% |
| O=C1CCc2ccc(NC(=O)N[C@H]3CC[C@@H](c4ccccc4)C3)cc2N1 [Example 26, 1-(2-oxo-1,2,3,4-tetrahydroquinolin-7-yl)-3-[(1S,3R)-3-phenylcyclopentyl]urea] | 544 nM | 65% |
| CC(C)(C)c1ccc(C2CCCC(NC(=O)Nc3cccc4[nH]ncc34)C2)cc1 (stereo not shown) [Example 29, 1-[3-(4-tert-butylphenyl)cyclohexyl]-3-(1H-indazol-4-yl)urea] | 1730 nM | 68% |
| O=C(Nc1cccc2[nH]ncc12)N[C@H]1CCC[C@H](c2ccccc2)C1 [Example 35, 1-(1H-indazol-4-yl)-3-[(1S,3S)-3-phenylcyclohexyl]urea] | 292 nM | 11% |
| O=C(Nc1cccc2[nH]ncc12)N[C@@H]1CCC[C@H](c2ccccc2)C1 [Example 36, 1-(1H-indazol-4-yl)-3-[(1R,3S)-3-phenylcyclohexyl]urea] | 56 nM | 8% |
| CN(C)c1ccc([C@H]2CCC(NC(=O)Nc3cccc4[nH]ncc34)C2)cc1 (stereo partly drawn) [Example 47, 1-{(3S)-3-[4-(dimethylamino)phenyl]cyclopentyl}-3-(1H-indazol-4-yl)urea] | 290 nM | 3% |
| O=C(Nc1cccc2[nH]ncc12)N[C@H]1CC[C@@H](C2CCCCC2)C1 [Example 49, 1-((1S,3R)-3-cyclohexylcyclopentyl)-3-(1H-indazol-4-yl)urea] | 66 nM | 68% |

Continued, values first:

| IC50 [1] | remaining activity at 37.5 µM [2] | SMILES |
| --- | --- | --- |
| 1050 nM | 26% | O=C(Nc1cccc2[nH]ncc12)NC1CCCC(c2ccc(C(F)(F)F)cc2)C1 (stereo not shown) [Example 30, 1-(1H-indazol-4-yl)-3-{3-[4-(trifluoromethyl)phenyl]cyclohexyl}urea] |
| 1840 nM | 35% | O=C(Nc1cccc2[nH]ncc12)N[C@@H]1CCC[C@@H](c2ccc(C(F)(F)F)cc2)C1 [Example 31, 1-(1H-indazol-4-yl)-3-{(1R,3R)-3-[4-(trifluoromethyl)phenyl]cyclohexyl}urea] |
| 795 nM | 32% | O=C(Nc1cccc2[nH]ncc12)N[C@H]1CCC[C@H](c2ccc(C(F)(F)F)cc2)C1 [Example 32, 1-(1H-indazol-4-yl)-3-{(1S,3S)-3-[4-(trifluoromethyl)phenyl]cyclohexyl}urea] |
| 8640 nM | 68% | O=C(Nc1cccc2[nH]ncc12)N[C@H]1CCC[C@@H](c2ccc(C(F)(F)F)cc2)C1 [Example 33, 1-(1H-indazol-4-yl)-3-{(1S,3R)-3-[4-(trifluoromethyl)phenyl]cyclohexyl}urea] |
| 427 nM | 6% | CC(C)(C)c1ccc(C2CCC(NC(=O)Nc3cccc4[nH]ncc34)C2)cc1 (stereo not shown) [Example 37, 1-[3-(4-tert-butylphenyl)cyclopentyl]-3-(1H-indazol-4-yl)urea] |
| 78 nM | 1% | COc1ccc(C2CCC(NC(=O)Nc3cccc4[nH]ncc34)C2)cc1 (stereo not shown) [Example 40, 1-(1H-indazol-4-yl)-3-[3-(4-methoxyphenyl)cyclopentyl]urea] |
| 311 nM | 1% | O=C(Nc1cccc2[nH]ncc12)N[C@H]1CC[C@H](c2ccc(C(F)(F)F)cc2)C1 [Example 41, 1-(1H-indazol-4-yl)-3-{(1S,3S)-3-[4-(trifluoromethyl)phenyl]cyclopentyl}urea] |
| 17 nM | 3% | O=C(Nc1cccc2[nH]ncc12)N[C@@H]1CC[C@H](c2ccc(C(F)(F)F)cc2)C1 [Example 42, 1-(1H-indazol-4-yl)-3-{(1R,3S)-3-[4-(trifluoromethyl)phenyl]cyclopentyl}urea] |
| 221 nM | 55% | O=C(Nc1cccc2[nH]ncc12)N[C@H]1CC[C@@H](c2ccc(C(F)(F)F)cc2)C1 [Example 43, 1-(1H-indazol-4-yl)-3-{(1S,3R)-3-[4-(trifluoromethyl)phenyl]cyclopentyl}urea] |
| 169 nM | 13% | O=C(Nc1cccc2[nH]ncc12)N[C@@H]1CC[C@@H](c2ccc(C(F)(F)F)cc2)C1 [Example 44, 1-(1H-indazol-4-yl)-3-{(1R,3R)-3-[4-(trifluoromethyl)phenyl]cyclopentyl}urea] |
| 26 nM | 9% | O=C(Nc1cccc2[nH]ncc12)NC1CC[C@H](c2ccc(F)cc2)C1 (stereo partly drawn) [Example 45, 1-[(3S)-3-(4-fluorophenyl)cyclopentyl]-3-(1H-indazol-4-yl)urea] |
| 87 nM | 7% | CSc1ccc([C@H]2CCC(NC(=O)Nc3cccc4[nH]ncc34)C2)cc1 (stereo partly drawn) [Example 46, 1-(1H-indazol-4-yl)-3-{(3S)-3-[4-(methylsulfanyl)phenyl]cyclopentyl}urea] |

From patent publication US8802711B2, “TRPV1 antagonists” (AbbVie Inc., priority 2011, dated 2014)
